Active and inactive are the calls of the source. No cut-off for these calls is given here.
Assays:
[1] = system: Rattus norvegicus; assay: (§1) Antidiabetic activity in ip dosed high fat diet-STZ induced diabetic Wistar rat model assessed as reduction of STING mRNA expression in kidney pretreated with high fat diet for 4 weeks followed by 8 hrs fasting after STZ administration and measured 4 weeks after compound treatment by RT-qPCR analysis; type: functional, organism-based; conditions: dose 10-30 mg/kg
[2] = system: Rattus norvegicus; assay: (§2) Antidiabetic activity in high fat diet-STZ induced diabetic Wistar rat model assessed as AST level at 20 mg/kg, ip pretreated with high fat diet for 4 weeks followed by 8 hrs fasting after STZ administration and measured 4 weeks after compound treatment (reference value: 136.3 +/- 22.8 IU/L); type: functional
[3] = system: Rattus norvegicus; assay: (§3) Antidiabetic activity in high fat diet-STZ induced diabetic Wistar rat model assessed as AST level at 30 mg/kg, ip pretreated with high fat diet for 4 weeks followed by 8 hrs fasting after STZ administration and measured 4 weeks after compound treatment (reference value: 136.3 +/- 22.8 IU/L); type: functional
[4] = system: Rattus norvegicus; assay: Antidiabetic activity in high fat diet-STZ induced diabetic Wistar rat model assessed as creatinine level at 30 mg/kg, ip pretreated with high fat diet for 4 weeks followed by 8 hrs fasting after STZ administration and measured 4 weeks after compound treatment (reference value: 3.88 +/- 0.502 mg%); type: functional
[5] = system: Rattus norvegicus; assay: (§4) Antidiabetic activity in ip dosed high fat diet-STZ induced diabetic Wistar rat model assessed as reduction of DDX58 mRNA expression in liver pretreated with high fat diet for 4 weeks followed by 8 hrs fasting after STZ administration and measured 4 weeks after compound treatment by RT-qPCR analysis; type: functional, organism-based; conditions: dose 10-30 mg/kg
[6] = system: Rattus norvegicus; assay: as §1, with “in” for “in ip dosed”, “increase in AC074117.2 lncRNA” for “reduction of STING mRNA”, “adipose tissue at 10 to 30 mg/kg, ip” for “kidney”; type: functional, organism-based; conditions: dose 10-30 mg/kg
[7] = system: Rattus norvegicus; assay: Antidiabetic activity in ip dosed high fat diet-STZ induced diabetic Wistar rat model assessed as reduction of STING mRNA expression in liver pretreated with high fat diet for 4 weeks followed by 8 hrs fasting after STZ administration and measured 4 weeks after compound treatment by RT-qPCR analysis; type: functional, organism-based; conditions: dose 10-30 mg/kg
[8] = system: Rattus norvegicus; assay: as §4, with “in” for “in ip dosed”, “in inflammatory cell infiltrates” for “of DDX58 mRNA expression”, “liver at 30 mg/kg, ip” for “liver”, “hematoxylin and eosin staining based microscopic” for “RT-qPCR”; type: functional, organism-based
[9] = system: Rattus norvegicus; assay: (§5) Antidiabetic activity in high fat diet-STZ induced diabetic Wistar rat model assessed as reduction in luminal exfoliation of epithelial cells in kidney at 30 mg/kg, ip pretreated with high fat diet for 4 weeks followed by 8 hrs fasting after STZ administration and measured 4 weeks after compound treatment by hematoxylin and eosin staining based microscopic analysis; type: functional, organism-based
[10] = system: Rattus norvegicus; assay: as §2, with “triglyceride” for “AST”, “10” for “20”, “17.05” for “136.3”, “0.803 mmol/L)” for “22.8 IU/L)”; type: functional
[11] = system: Rattus norvegicus; assay: as §5, with “intact hepatocytes” for “reduction in luminal exfoliation of epithelial cells in kidney”; type: functional, organism-based
[12] = system: Rattus norvegicus; assay: (§6) Antidiabetic activity in high fat diet-STZ induced diabetic Wistar rat model assessed as mean area percentage of LC3B in liver at 10 mg/kg, ip pretreated with high fat diet for 4 weeks followed by 8 hrs fasting after STZ administration and measured after 4 weeks of compound treatment by immunohistochemistry based microscopic analysis (reference value: 0.742 +/- 0.143 %); type: functional
[13] = system: Rattus norvegicus; assay: as §5, with “protection against replacement” for “reduction in luminal exfoliation”, “hepatocellular necrosis with inflammatory” for “epithelial”, “cells” for “cells in kidney”, “10” for “30”; type: functional, organism-based
[14] = system: Rattus norvegicus; assay: as §2, with “glucose” for “AST”, “level in serum” for “level”, “527.7” for “136.3”, “49.1 mg%)” for “22.8 IU/L)”; type: functional
[15] = system: Rattus norvegicus; assay: as §2, with “blood urea nitrogen” for “AST”, “466.4” for “136.3”, “51.16 mg%)” for “22.8 IU/L)”; type: functional
[16] = system: Rattus norvegicus; assay: as §5, with “degenerative changes” for “luminal exfoliation of epithelial cells”, “liver” for “kidney”; type: functional, organism-based
[17] = system: Rattus norvegicus; assay: as §6, with “TNFalpha” for “LC3B”, “kidney” for “liver”, “20” for “10”, “24” for “0.742”, “1.5” for “0.143”; type: functional
[18] = system: Rattus norvegicus; assay: as §5, with “persistent tubular dilation” for “luminal exfoliation of epithelial cells”, “20” for “30”; type: functional, organism-based
[19] = system: Rattus norvegicus; assay: as §6, with “30” for “10”; type: functional
[20] = system: Rattus norvegicus; assay: as §2, with “insulin” for “AST”, “level in serum” for “level”, “treatment by ELISA” for “treatment”, “16.53” for “136.3”, “1.14 microU/ml)” for “22.8 IU/L)”; type: functional
[21] = system: Rattus norvegicus; assay: as §3, with “LDL-cholesterol” for “AST”, “6.54” for “136.3”, “0.918 mmol/L)” for “22.8 IU/L)”; type: functional
[22] = system: Rattus norvegicus; assay: Antidiabetic activity in ip dosed high fat diet-STZ induced diabetic Wistar rat model assessed as reduction of miR-1976 expression in liver pretreated with high fat diet for 4 weeks followed by 8 hrs fasting after STZ administration and measured 4 weeks after compound treatment by RT-qPCR analysis; type: functional, organism-based; conditions: dose 10-30 mg/kg
[23] = system: Rattus norvegicus; assay: as §6, with “20” for “10”; type: functional
[24] = system: Rattus norvegicus; assay: as §1, with “in” for “in ip dosed”, “increase in AC074117.2 lncRNA” for “reduction of STING mRNA”, “kidney at 10 to 30 mg/kg, ip” for “kidney”; type: functional, organism-based; conditions: dose 10-30 mg/kg
[25] = system: Rattus norvegicus; assay: as §5, with “interstitial inflammatory cell infiltration” for “luminal exfoliation of epithelial cells”, “10” for “30”; type: functional, organism-based
[26] = system: Rattus norvegicus; assay: Antidiabetic activity in high fat diet-STZ induced diabetic Wistar rat model assessed as urine albumin to creatinine ratio at 10 mg/kg, ip pretreated with high fat diet for 4 weeks followed by 8 hrs fasting after STZ administration and measured 4 weeks after compound treatment (reference value: 87.13 +/- 9.75 mg/g); type: functional
[27] = system: Rattus norvegicus; assay: as §2, with “HDL-cholesterol” for “AST”, “0.688” for “136.3”, “0.288 mmol/L)” for “22.8 IU/L)”; type: functional
[28] = system: Rattus norvegicus; assay: as §6, with “TNFalpha” for “LC3B”, “kidney” for “liver”, “24” for “0.742”, “1.5” for “0.143”; type: functional
[29] = system: Rattus norvegicus; assay: as §2, with “HDL-cholesterol” for “AST”, “10” for “20”, “0.688” for “136.3”, “0.288 mmol/L)” for “22.8 IU/L)”; type: functional
[30] = system: Rattus norvegicus; assay: Antidiabetic activity in high fat diet-STZ induced diabetic Wistar rat model assessed as HOMA-IR level at 20 mg/kg, ip pretreated with high fat diet for 4 weeks followed by 8 hrs fasting after STZ administration and measured 4 weeks after compound treatment (reference value: 21.51 +/- 2.17); type: functional
[31] = system: Rattus norvegicus; assay: Antidiabetic activity in ip dosed high fat diet-STZ induced diabetic Wistar rat model assessed as reduction of ZBP1 mRNA expression in kidney pretreated with high fat diet for 4 weeks followed by 8 hrs fasting after STZ administration and measured 4 weeks after compound treatment by RT-qPCR analysis; type: functional, organism-based; conditions: dose 10-30 mg/kg

SMILES: O[C@@H]1[C@@H](O)[C@H](OC/C=C/c2ccccc2)O[C@H](CO[C@@H]2OC[C@H](O)[C@H](O)[C@H]2O)[C@H]1O
- Activity [1]: Dose-Dependent Effect
- Activity [2]: 54.5 IU/L
- Activity [3]: 30.25 IU/L
- Activity [4]: 0.769 mg%
- Activity [5]: Dose-Dependent Effect
- Activity [6]: Active
- Activity [7]: Dose-Dependent Effect
- Activity [8]: Active
- Activity [9]: Active
- Activity [10]: 8.52 mmol/L
- Activity [11]: Active
- Activity [12]: 2.22%
- Activity [13]: inactive
- Activity [14]: 174.8 mg%
- Activity [15]: 213.3 mg%
- Activity [16]: Active
- Activity [17]: 13.17%
- Activity [18]: Active
- Activity [19]: 13.3%
- Activity [20]: 6.4 uU/ml
- Activity [21]: 1.3 mmol/L
- Activity [22]: Dose-Dependent Effect
- Activity [23]: 2.35%
- Activity [24]: Active
- Activity [25]: Active
- Activity [26]: 50.75 mg/g
- Activity [27]: 1.06 mmol/L
- Activity [28]: 16.98%
- Activity [29]: 0.916 mmol/L
- Activity [30]: 2.76
- Activity [31]: Dose-Dependent Effect

Source: ChEMBL document CHEMBL5532761, “Rosavin improves insulin resistance and alleviates hepatic and kidney damage via modulating the cGAS-STING pathway and autophagy signaling in HFD/STZ-induced T2DM animals” (2024)
